# Assay results taken from US8541476B2, “Compounds for treatment of malignant tumors” (The Trustees of the University of Pennsylvania, priority 2007, dated 2013).
# Columns and labels:
# U251 glioma cells = assay: Clonogenic survival assay, U251 cells; type: cell-based, human
# Method: (§1) Clonogenic survival assays were performed as described by Koumenis, et al., 2002, (Mol. Cell Biol. 22:7405-16), which reference is incorporated herein in its entirety. U251, HT-29, or A549 cells were plated at different densities in triplicate, treated with NS-123 or DMSO (alone) and irradiated 4, 8, or 12 hours later with a range of doses using ^137Cs γ-rays at a dose rate of ˜4 Gy/minute (min). One hour after irradiation, the medium was replaced with fresh medium without NS-123 or DMSO. The cells were fixed 7-14 days after IR and stained with crystal violet. Colonies greater than 50 cells were then counted and normalized against the non-irradiated controls for each treatment. […] NHA cells were plated in 24-well plates in quadruplicate at equal density, treated with equal volumes of NS-123 or DMSO (alone) and irradiated as described above. One hour after irradiation, the medium was replaced with fresh ABM. Five days later, the MTS assay was used to evaluate cell survival as above.
# The effects of μM doses of NS-123 on clonogenic survival of U251 cells were first determined without ionizing radiation (IR). […] Treatment with a 5 μM dose for 12 hours caused a modest (30%), but statistically significant decrease in survival.
# Next, the dose-dependent radiosensitizing effects of NS-123 (2.5 μM and 5.0 μM concentration) in U251 cells was determined (FIG. 4A). […] Therefore, NS-123 can act as a true radiosensitizer at low μM concentrations. Corresponding Dose Enhancement Ratios (DER) at 0.1 survival were: 1.3 (2.5 μM NS-123) and 2.0 (5.0 μM NS-123). The time-dependent radiosensitizing effects of 5.0 μM NS-123 in U251 cells was then investigated. […] Corresponding DER at 0.1 survival were: 1.2 (4 hour preincubation with NS-123), 1.4 (8 hour) and 1.9 (12 hour).
# [1] = test system: A549 non-small cell lung cancer cells; assay: Clonogenic survival assay, A549 cells; type: cell-based, human; conditions: A549, 5 μM for 12 hours prior to IR
# Method: as §1
# To exclude the possibility that the radiosensitizing effect of NS-123 was specific to a single cell line, the radiosensitizing effect of NS-123 was tested on additional cell lines of different tissue origin. Clonogenic survival assays were performed. […]
# U251 tumors xenografts = assay: U251 xenograft mouse model, tumor growth delay; type: in vivo
# Method: U251 cells (5×10^6) were suspended in 0.1 mL of PBS and then injected into the flanks of nu/nu female nude mice. After tumors formed (45±10 mm^3), mice were randomly assigned into one of four groups: DMSO+Sham IR, DMSO+5 Gy IR, NS-123+Sham IR, and NS-123+5 Gy IR. NS-123 was administered as described above. Groups not receiving NS-123 were treated with the same volume of DMSO alone dissolved in 30% propylene glycol. Mouse flanks were irradiated 4 hours following the second injection with 5 Gy (Precision X-Ray, Inc, North Branford, Conn.) given as one fraction or Sham IR. Tumor volumes were measured every other day based on the formula: Volume=length^2×width where length was always the longest dimension.
# Data are presented as average relative tumor volume (RTV), where: RTV[Dayx]=Volume[Dayx]/Volume[Day0]
# The measurement of tumor regrowth was calculated by the time needed to grow to 10× the treatment volume. As per Seo et al, 2005, (Clin. Cancer Res. 11:7499-507), the in vivo radiosensitizer enhancement ratio was defined as the ratio: TNS-123+IR/TDMSO+IR where T is tumor regrowth delay (days)
# To investigate in a more sophisticated model the radiosensitization observed by NS-123 in ZF, a growth delay assay of U251 tumors xenografts in nu/nu nude mice was performed. Mice were treated for 3 consecutive days with either NS-123 or DMSO (i.p.) and received either 5 Gy IR or Sham IR 4 hours after the second injection (see Table at the bottom FIG. 7A). […] Furthermore, they provide additional support for the use of the novel ZF xenograft model as a faster, more economical screening tool for potential in vivo radiosensitizing activity of lead compounds.
structure (smiles),measurement,setting,value
"CCC(=O)c1ccc(Br)c([N+](=O)[O-])c1 [NS-123, 4′-bromo-3′-nitropropiophenone]",clonogenic survival without IR,"U251 glioma cells; U251, 2.5 μM for 12 hours, no IR",did not cause any significant decrease in survival
same,Dose Enhancement Ratio (DER) at 0.1 survival,"U251 glioma cells; U251, 2.5 μM, 12 hours before IR",1.3
same,radiosensitization,"U251 glioma cells; U251, 2.5 μM, IR dose of 2 Gy",Radiosensitization was evident
same,decrease in clonogenic survival without IR,"U251 glioma cells; U251, 5 μM for 12 hours, no IR",30%
same,Dose Enhancement Ratio (DER) at 0.1 survival,"U251 glioma cells; U251, 5.0 μM, 4 hour preincubation",1.2
same,Dose Enhancement Ratio (DER) at 0.1 survival,"U251 glioma cells; U251, 5.0 μM, 8 hour preincubation",1.4
same,Dose Enhancement Ratio (DER) at 0.1 survival,"U251 glioma cells; U251, 5.0 μM, 12 hour preincubation (time-response, FIG. 4B)",1.9
same,Dose Enhancement Ratio (DER) at 0.1 survival,"U251 glioma cells; U251, 5.0 μM, 12 hours before IR (dose-response, FIG. 4A)",2.0
same,"loss of viability without IR, time-response","U251 glioma cells; U251, 5 μM, various times, no IR",did not induce any significant loss of viability unless it was administered for 12 hours
same,"radiosensitization, high-density plated cells","U251 glioma cells; U251 plated at high density, 30 μM 4 hour versus 5 μM 12 hour on low-density cells (data not shown)",comparable radiosensitization
same,DER at 0.1 survival,[1],1.4
same,mean time to reach Relative Tumor Volume (RTV)=10,U251 tumors xenografts; NS-123 50 mg/kg i.p. x3 days + 5 Gy IR,20 days
same,mean time to reach Relative Tumor Volume (RTV)=10,U251 tumors xenografts; NS-123 50 mg/kg i.p. x3 days + Sham IR,12 days
same,in vivo radiosensitizer enhancement ratio,U251 tumors xenografts; ratio of tumor regrowth delay NS-123+IR / DMSO+IR,2.0
